Source: patent US20200179488A1, “Secretin Receptor Agonists to Treat Diseases or Disorders of Energy Homeostasis” (Technische Universität München, priority 2016, published 2020)

What was measured:
[1] = biological target: secretin receptor (mouse, on primary brown adipocytes) (mouse) (UniProt Q5FWI2); assay: cell-based or functional assay
UCP1 expression [2] = assay: UCP1 mRNA expression (qRT-PCR) in primary adipocytes from interscapular brown adipose tissue; assay type: cell-based, Mus musculus; details: 0.1 μM secretin or 0.5 μM isoproterenol, 6 hours, normalized to TFIIB (FIG. 4B)
Experimental: (§1) For culturing primary adipocytes male 129S1/SvImJ mice ([…] or UCP1-KO mice and wildtype littermates) at the age of 5-6 weeks were used for the dissection of inguinal and epidydimal white adipose tissue and interscapular brown adipose tissue depots. The tissue was carefully minced and treated with collagenase for 45 min at 37° C. The homogenate was filtered through a 250 μm nylon mesh and centrifuged at 500 g to collect the stromal vascular fraction (SVF). The SVF cell pellet was rinsed and seeded into XF96 V3-PS cell culture microplate (Seahorse Bioscience). After reaching confluency, induction medium containing 10% fetal bovine serum (FBS), 0.5 mM isobutylmethylxanthine, 125 nM indomethacin, 1 mM dexamethasone, 850 nM insulin and 1 nM T3 was added. […] Respiration was measured on day 7 of differentiation. […] RNA was eluted in 50 μl nuclease-free water and RNA concentration was determined spectrophotometrically (Infinite 200 PRO NanoQuant, Tecan, Männedorf/Switzerland). Reverse transcription into cDNA was performed with 500 ng RNA in a final volume of 10 μl (Quantitect Reverse Transcription Kit, Quiagen, Hilden/Germany). qRT-PCR was conducted on 384 well plates in a total volume of 12.5 μl comprising 6.25 μl SensiMix SYBR No-ROX (Bioline, London/UK), 250 nM forward and reverse primers, and 1 μl template cDNA (LightCycler 480 System, Roche Diagnostics, Rotkreuz/Switzerland). […]

UCP1 expression [3] = assay: UCP1 mRNA expression (qRT-PCR) in primary adipocytes from inguinal white adipose tissue; assay type: cell-based, Mus musculus; details: 0.1 μM secretin or 0.5 μM isoproterenol, 6 hours, normalized to TFIIB (FIG. 4A)
Experimental: as §1

primary brown adipocytes = assay: Microplate respirometry (oxygen consumption rate) in differentiated primary brown adipocytes of wildtype mice; assay type: cell-based, Mus musculus
Experimental: For culturing primary adipocytes male 129S1/SvImJ mice ([…] or UCP1-KO mice and wildtype littermates) at the age of 5-6 weeks were used for the dissection of inguinal and epidydimal white adipose tissue and interscapular brown adipose tissue depots. The tissue was carefully minced and treated with collagenase for 45 min at 37° C. The homogenate was filtered through a 250 μm nylon mesh and centrifuged at 500 g to collect the stromal vascular fraction (SVF). The SVF cell pellet was rinsed and seeded into XF96 V3-PS cell culture microplate (Seahorse Bioscience). After reaching confluency, induction medium containing 10% fetal bovine serum (FBS), 0.5 mM isobutylmethylxanthine, 125 nM indomethacin, 1 mM dexamethasone, 850 nM insulin and 1 nM T3 was added. After 2 days of induction, cells were maintained in differentiation media (10% FBS, 850 nM insulin and 1 nM T3). Medium was changed every two days. Respiration was measured on day 7 of differentiation. For determination of mRNA levels cells were stimulated at the 7th day of differentiation for 6 hours with secretin (rat, Tocris, Art Nr 1919) or isoproterenol (Sigma-Aldrich, Art Nr. 16504-100MG) and harvested subsequently. Oxygen consumption rate (OCR) was measured at 37° C. using a microplate respirometer (XF96 extracellular flux analyzer, Seahorse Bioscience). At day 7, the differentiation medium was replaced with prewarmed, unbuffered assay medium (DMEM basal medium supplemented with 25 mM glucose, 2 mM sodium pyruvate, 31 mM NaCl, 2 mM GlutaMax and 15 mg/l phenol red, pH 7.4) containing 2% of essentially fatty acid free bovine serum albumin (BSA), and incubated at 37° C. in a room air incubator for 1 h. Basal respiration was measured in untreated cells. Coupled respiration was inhibited by oligomycin treatment (5 μM). […] Maximum respiratory capacity was assessed after FCCP (Sigma-Aldrich) addition (1 μM). Finally, mitochondrial respiration was blocked by antimycin A (Sigma-Aldrich) (5 μM) treatment and the residual OCR was considered to be due to non-mitochondrial reactions. Oxygen consumption rates were calculated using the Seahorse XF-96 software. Data were exported and reconstructed in GraphPad Prism 4.0 software. For each condition the lowest OCR after antimycin A addition was subtracted from all other values. Respiration rates following oligomycin addition were defined as basal OCR. For induction of OCR by isoproterenol, secretin or FCCP the highest values measured after addition of the respective molecule was used. The “OCR in % of basal OCR” and “OCR in % of FCCP OCR” were calculated as follows: Method: To test whether SCT can activate thermogenesis in brown adipocytes, we measured UCP1-mediated uncoupled respiration in cultured adherent intact primary brown adipocytes, according to a protocol recently established in our lab (Li Y, Fromme T, Schweizer S, Schöttl T, Klingenspor M. EMBO Rep. 2014 October; 15(10):1069-76. doi: 10.15252/embr.201438775; […]. Meaningful respirometric measurements of UCP1-mediated thermogenesis. Biochimie. 2017 March; 134:56-61. doi: 10.1016/j.biochi.2016.12.005.). The cellular oxygen consumption rate (OCR) of primary adipocytes was determined using an XF96 Extracellular Flux Analyzer (Seahorse Bioscience). Briefly, primary adipocytes were cultured and differentiated in XF96 microplates. At day 7 of differentiation, cells were washed once with prewarmed, unbuffered assay medium (DMEM basal medium supplemented with 25 mM glucose, 31 mM NaCl, 2 mM GlutaMax and 15 mg/l phenol red, pH 7.4) (basal assay medium) and then the medium was replaced with basal assay medium containing 1-2% essentially fatty acid free bovine serum albumin (BSA), and incubated at 37° C. in a room air incubator for 1 h. The drug injections ports of the sensor cartridges were loaded with the assay reagents at 10× in basal assay medium (no BSA). All respiration assays were performed in the presence of bovine serum albumin to buffer free fatty acid levels in the respiration medium. […]

[4] = system: primary brown adipocytes from UCP1 knockout mice; assay: Microplate respirometry (oxygen consumption rate) in primary brown adipocytes from UCP1 knockout mice; assay type: cell-based, Mus musculus
Experimental: For culturing primary adipocytes male 129S1/SvImJ mice ([…] or UCP1-KO mice and wildtype littermates) at the age of 5-6 weeks were used for the dissection of inguinal and epidydimal white adipose tissue and interscapular brown adipose tissue depots. The tissue was carefully minced and treated with collagenase for 45 min at 37° C. The homogenate was filtered through a 250 μm nylon mesh and centrifuged at 500 g to collect the stromal vascular fraction (SVF). The SVF cell pellet was rinsed and seeded into XF96 V3-PS cell culture microplate (Seahorse Bioscience). After reaching confluency, induction medium containing 10% fetal bovine serum (FBS), 0.5 mM isobutylmethylxanthine, 125 nM indomethacin, 1 mM dexamethasone, 850 nM insulin and 1 nM T3 was added. After 2 days of induction, cells were maintained in differentiation media (10% FBS, 850 nM insulin and 1 nM T3). Medium was changed every two days. Respiration was measured on day 7 of differentiation. For determination of mRNA levels cells were stimulated at the 7th day of differentiation for 6 hours with secretin (rat, Tocris, Art Nr 1919) or isoproterenol (Sigma-Aldrich, Art Nr. 16504-100MG) and harvested subsequently. Oxygen consumption rate (OCR) was measured at 37° C. using a microplate respirometer (XF96 extracellular flux analyzer, Seahorse Bioscience). At day 7, the differentiation medium was replaced with prewarmed, unbuffered assay medium (DMEM basal medium supplemented with 25 mM glucose, 2 mM sodium pyruvate, 31 mM NaCl, 2 mM GlutaMax and 15 mg/l phenol red, pH 7.4) containing 2% of essentially fatty acid free bovine serum albumin (BSA), and incubated at 37° C. in a room air incubator for 1 h. Basal respiration was measured in untreated cells. […] Maximum respiratory capacity was assessed after FCCP (Sigma-Aldrich) addition (1 μM). […] Oxygen consumption rates were calculated using the Seahorse XF-96 software. […] For induction of OCR by isoproterenol, secretin or FCCP the highest values measured after addition of the respective molecule was used. The “OCR in % of basal OCR” and “OCR in % of FCCP OCR” were calculated as follows: Method: To test whether SCT can activate thermogenesis in brown adipocytes, we measured UCP1-mediated uncoupled respiration in cultured adherent intact primary brown adipocytes, according to a protocol recently established in our lab (Li Y, Fromme T, Schweizer S, Schöttl T, Klingenspor M. EMBO Rep. 2014 October; 15(10):1069-76. doi: 10.15252/embr.201438775; […]. Meaningful respirometric measurements of UCP1-mediated thermogenesis. Biochimie. 2017 March; 134:56-61. doi: 10.1016/j.biochi.2016.12.005.). The cellular oxygen consumption rate (OCR) of primary adipocytes was determined using an XF96 Extracellular Flux Analyzer (Seahorse Bioscience). […]

adrenergic β-receptors = assay: SCT- and ISO-stimulated respiration in primary brown adipocytes after propranolol pretreatment; assay type: cell-based, Mus musculus
Experimental: SCT- and ISO-stimulated respiration after 1 h pretreatment with different concentrations propranolol, a non-selective blocker of adrenergic β-receptors.
(§2) Method: To test whether SCT can activate thermogenesis in brown adipocytes, we measured UCP1-mediated uncoupled respiration in cultured adherent intact primary brown adipocytes, according to a protocol recently established in our lab (Li Y, Fromme T, Schweizer S, Schöttl T, Klingenspor M. EMBO Rep. 2014 October; 15(10):1069-76. doi: 10.15252/embr.201438775; Li Y, Fromme T, Klingenspor M. Meaningful respirometric measurements of UCP1-mediated thermogenesis. Biochimie. 2017 March; 134:56-61. doi: 10.1016/j.biochi.2016.12.005.). The cellular oxygen consumption rate (OCR) of primary adipocytes was determined using an XF96 Extracellular Flux Analyzer (Seahorse Bioscience). Briefly, primary adipocytes were cultured and differentiated in XF96 microplates. […]
All respiration assays were performed in the presence of bovine serum albumin to buffer free fatty acid levels in the respiration medium. Basal respiration was measured in untreated cells. […] UCP1 mediated uncoupled respiration was determined after isoproterenol or secretin stimulation. Maximum respiratory capacity was assessed after FCCP (Sigma-Aldrich) addition (1 μM). […] Oxygen consumption rates were automatically calculated by the Seahorse XF-96 software. […]

Protein Kinase A = assay: SCT-stimulated respiration in primary brown adipocytes after pretreatment with the PKA inhibitor H89; assay type: cell-based, Mus musculus; details: H89 50 μM pretreatment (FIG. 10F)
Experimental: F: Thermogenic effect of SCT depends on Protein Kinase A activity. Fold increase of basal leak respiration after stimulation with ISO, SCT and vehicle (assay medium) w/o proteinkinase A inhibitor H89 (50 μM). Inhibitor was injected together with olgio prior to addition of stimulators.
as §2, with “Bioscience).” for “Bioscience). Briefly, primary adipocytes were cultured and differentiated in XF96 microplates.”
All respiration assays were performed in the presence of bovine serum albumin to buffer free fatty acid levels in the respiration medium. Basal respiration was measured in untreated cells. […] UCP1 mediated uncoupled respiration was determined after isoproterenol or secretin stimulation. Maximum respiratory capacity was assessed after FCCP (Sigma-Aldrich) addition (1 μM). […]

UniProt Q5FWI2, sequence (Q5FWI2 29-447): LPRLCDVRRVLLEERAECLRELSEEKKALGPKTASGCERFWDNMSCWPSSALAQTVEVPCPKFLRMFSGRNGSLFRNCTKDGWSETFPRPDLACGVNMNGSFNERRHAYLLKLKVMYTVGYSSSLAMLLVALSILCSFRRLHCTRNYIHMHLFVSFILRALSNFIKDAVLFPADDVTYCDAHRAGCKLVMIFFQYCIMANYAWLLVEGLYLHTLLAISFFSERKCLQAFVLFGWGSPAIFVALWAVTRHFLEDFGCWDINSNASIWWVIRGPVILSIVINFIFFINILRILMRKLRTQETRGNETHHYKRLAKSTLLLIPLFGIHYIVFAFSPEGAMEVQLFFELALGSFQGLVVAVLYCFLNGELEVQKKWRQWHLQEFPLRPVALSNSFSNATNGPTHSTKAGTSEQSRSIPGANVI

## secretin (rat, Tocris, Art Nr 1919) (from UniProt P11384 33-59) (peptide)
[1]
  oxygen consumption rate (OCR) in primary brown adipocytes, increase above basal OCR, 0.5 µM secretin (% above basal OCR): 200
  uncoupled OCR in primary brown adipocytes as a share of maximal uncoupled OCR induced by FCCP, 0.5 µM secretin (% of maximal uncoupled OCR): 75

## CC(C)NCC(O)c1ccc(O)c(O)c1 (stereo not shown) [isoproterenol, reference compound]
UCP1 expression [2]
  UCP1 mRNA expression in brown adipocytes versus PBS: induced UCP1 expression to a similar level as secretin
UCP1 expression [3]
  UCP1 mRNA expression in white adipocytes versus PBS: induction of UCP1 expression
Primary brown adipocytes; 0.5 μM, after oligomycin, day 7 of differentiation (FIG. 2B)
  increase of OCR above basal OCR: about 200%
Primary brown adipocytes; 0.5 μM, day 7 of differentiation (FIG. 2C)
  uncoupled OCR as share of maximal uncoupled OCR induced by FCCP: about 75%
Primary brown adipocytes; 129/S1 background, FIG. 3
  induction of oxygen consumption in cells from wildtype control mice: increase in oxygen consumption
Primary brown adipocytes; SCT 10 nM, ISO 500 nM, N=5 (FIG. 10A)
  stimulation of UCP1-mediated thermogenesis (uncoupled respiration): activate UCP1-dependent thermogenesis
[4]; 129/S1 background, FIG. 3
  induction of respiration in cells from UCP1 knockout mice: lacking
[4]; SCT 10 nM, ISO 500 nM (FIG. 10B)
  response of respiration in UCP1 knockout brown adipocytes: did not respond

## CC(C)NCC(O)COc1cccc2ccccc12 (stereo not shown) [propranolol]
Adrenergic β-receptors; 1 h pretreatment with propranolol (1 μM; different concentrations in FIG. 10D)
  effect on SCT stimulated respiration: did not attenuate SCT stimulated respiration
Adrenergic β-receptors; 1 h pretreatment with propranolol, dose dependent (FIG. 10D)
  effect on ISO stimulated respiration: blocking the effect of ISO

## O=S(=O)(NCCNCC=Cc1ccc(Br)cc1)c1cccc2cnccc12 [H89, N-[2-[[3-(4-Bromophenyl)-2-propenyl]amino]ethyl]-5-isoquinolinesulfonamide]
Protein Kinase A
  effect on the thermogenic effect of SCT: completely blocked the thermogenic effect of SCT
